Results taken from paper PMC10763615, “Identification and engineering of potent cyclic peptides with selective or promiscuous binding through biochemical profiling and bioinformatic data analysis” (RSC Chemical Biology, 2023).
Read-outs that look alike come from different tables or passages of the source.

Key:
[1] = molecular target: T1, FGFR1c/KLB (Fc-fused human FGF-R1alpha(IIIc) with beta-klotho) (Homo sapiens, UniProt P11362); test: AlphaScreen FGF21 competitive binding assay
T1 sequence (P11362 22-376 limits assumed): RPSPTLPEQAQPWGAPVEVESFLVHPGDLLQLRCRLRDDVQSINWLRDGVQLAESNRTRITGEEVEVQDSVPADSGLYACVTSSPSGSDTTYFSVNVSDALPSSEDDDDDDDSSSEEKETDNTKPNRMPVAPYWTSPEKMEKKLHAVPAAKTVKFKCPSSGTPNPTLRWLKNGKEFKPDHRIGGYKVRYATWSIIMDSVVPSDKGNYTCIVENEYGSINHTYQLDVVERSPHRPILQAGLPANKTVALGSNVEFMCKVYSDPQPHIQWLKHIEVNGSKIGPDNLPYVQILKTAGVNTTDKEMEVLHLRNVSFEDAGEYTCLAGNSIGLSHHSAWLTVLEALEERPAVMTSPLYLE
Description: Alphascreen binding assay
(§2) The competitive binding assay was carried out according to the methods detailed in Hansen. et al using
(§3) AlphaScreen.3 All reagents and samples were prepared in assay buffer: 40mM Hepes, 140mM NaCl, 1mM
(§4) CaCl2, 0,05% Tween20, pH=7.5, 0.1% BSA. In brief, recombinant human beta-klotho (R&D Systems) was
(§5) preincubated for 60 min with the ectodomain, either Fc-fused human FGF-R1alpha(IIIc), FGF-R3alpha(IIIc)
(§6) or FGF-R4 (R&D Systems), and the mixture was added to the test peptides in OptiPlate™ (PerkinElmer).
(§7) Biotinylated FGF21 and heparin were further added to each well. AlphaScreen bead mix (1:1 mix of Protein
(§8) A acceptor beads/ streptavidin-coated donor beads, PerkinElmer) were added to each well incubated
(§9) overnight at RT in the dark, and measured on a plate reader (Envision). Assays were carried out in triplicates
(§10) with concentrations ranging from 3, 10, 30, 100, 300 ,1000 and 3000 nM of peptide. No peptide control
(§11) (media only) was used as a negative control, and unlabeled FGF21 and FGF1 as positive control.
(§12) competing with biotinylated natural FGF21 ligand.

[2] = molecular target: T2, FGF-R4 ECD (Homo sapiens, UniProt P22455); test: multi-concentration BLI of purified peptides; format: binding; conditions: purified NNK library peptides
T2 construct: DNA constructs for the extracellular domain (ECD) of human FGF-; HPC4 (C); made in house; host or cells: HEK 293-6E
T2 sequence (P22455 22-369 limits assumed): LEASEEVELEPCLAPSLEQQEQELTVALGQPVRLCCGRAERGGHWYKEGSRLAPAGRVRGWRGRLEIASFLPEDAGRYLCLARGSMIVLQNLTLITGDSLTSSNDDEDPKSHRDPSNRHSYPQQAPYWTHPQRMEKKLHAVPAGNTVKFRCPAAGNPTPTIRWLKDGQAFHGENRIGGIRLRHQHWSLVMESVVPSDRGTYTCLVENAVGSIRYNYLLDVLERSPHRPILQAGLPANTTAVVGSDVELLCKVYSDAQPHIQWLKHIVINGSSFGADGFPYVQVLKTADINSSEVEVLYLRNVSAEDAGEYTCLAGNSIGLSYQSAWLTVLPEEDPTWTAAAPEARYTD
Procedure, shortened: (§1)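 Biolayer interferometry with biotinylated FGF-R ECD on streptavidin biosensors in PBS pH 7.4, 0.05% Tween-20, 0.01% BSA. Multi-concentration: purified peptide dilution series fitted to a multi-point KD model.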

[3] = molecular target: T2, FGF-R4 ECD; test: single concentration BLI of crude peptides; format: binding; conditions: crude NNK peptides, single concentration BLI (Table S3); read-out: KD (4)
Procedure, shortened: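 Biotinylated FGF-R ECD on streptavidin biosensors was dipped into ~1 μM crude peptide in PBS pH7.4 with 0.05% Tween-20 and 0.01% BSA for association, then into buffer for dissociation, and followed by BLI. Fitted KD values were adjusted for peptide concentration measured by UPLC-CAD.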

[4] = molecular target: T3, FGFR4/KLB (Fc-fused human FGF-R4 with beta-klotho) (Homo sapiens, UniProt P22455); test: AlphaScreen FGF21 competitive binding assay
T3 sequence (P22455 22-369 limits assumed): T2 sequence (P22455 22-369 limits assumed)
Description: Alphascreen binding assay
as §2, §3, §4, §5, §6, §7, §8, §9, §10, §11, §12

[5] = molecular target: T4, FGFR3c/BKL (Fc-fused human FGF-R3alpha(IIIc) with beta-klotho) (Homo sapiens, UniProt P22607); test: AlphaScreen FGF21 competitive binding assay
T4 sequence (P22607 23-375 limits assumed): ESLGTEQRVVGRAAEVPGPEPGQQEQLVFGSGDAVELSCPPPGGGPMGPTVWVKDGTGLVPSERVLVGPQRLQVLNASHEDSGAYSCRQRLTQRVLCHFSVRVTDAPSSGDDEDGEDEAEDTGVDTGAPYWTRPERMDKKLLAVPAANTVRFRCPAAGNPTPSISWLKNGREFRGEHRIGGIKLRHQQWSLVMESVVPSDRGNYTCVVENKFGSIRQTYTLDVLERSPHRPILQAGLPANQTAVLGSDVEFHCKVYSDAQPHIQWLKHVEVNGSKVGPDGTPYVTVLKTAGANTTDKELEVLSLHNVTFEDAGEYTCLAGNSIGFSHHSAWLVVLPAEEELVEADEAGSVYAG
Description: Alphascreen binding assay
as §2, §3, §4, §5, §6, §7, §8, §9, §10, §11, §12

[6] = molecular target: T5, FGF-R1C ECD (Homo sapiens, UniProt P11362); test: biochemical; format: binding; parameters: DNA constructs for the extracellular domain (ECD) of human FGF-; HPC4 (C); made in house; host or cells: HEK 293-6E
T5 sequence (P11362 22-376 limits assumed): T1 sequence (P11362 22-376 limits assumed)
Procedure, shortened: as §1

[7] = molecular target: T6, FGF-R3C ECD (Homo sapiens, UniProt P22607); test: biochemical; format: binding; parameters: DNA constructs for the extracellular domain (ECD) of human FGF-; HPC4 (C); made in house; host or cells: HEK 293-6E
T6 sequence (P22607 23-375 limits assumed): T4 sequence (P22607 23-375 limits assumed)
Procedure, shortened: as §1

[8] = molecular target: T5, FGF-R1C ECD; test: biochemical
Procedure, shortened: as §1

[9] = molecular target: T6, FGF-R3C ECD; test: biochemical
Procedure, shortened: as §1

[10] = purified NNK library peptides, multi-concentration BLI

CSCC[C@H](N)C(=O)N[C@H]1CSSC[C@@H](C(=O)NCC(=O)N[C@@H](CO)C(=O)NCC(=O)N[C@@H](CO)C(=O)N[C@@H](CC(=O)O)C(=O)N[C@@H](Cc2ccc(O)cc2)C(=O)N[C@@H](CCCCN)C(=O)N[C@@H](CC(=O)O)C(=O)N[C@@H](CC(=O)O)C(=O)N[C@@H](CC(=O)O)C(=O)N[C@@H](CC(=O)O)C(=O)N[C@@H](CCCCN)C(N)=O)NC(=O)[C@H](Cc2ccccc2)NC(=O)[C@@H]2CCCN2C(=O)[C@H]([C@@H](C)O)NC(=O)[C@H](CC(C)C)NC(=O)[C@H](Cc2c[nH]cn2)NC(=O)[C@H](Cc2c[nH]cn2)NC(=O)[C@H](Cc2ccccc2)NC(=O)[C@H](CC(C)C)NC(=O)[C@H](CCCNC(=N)N)NC(=O)[C@H](Cc2c[nH]c3ccccc23)NC(=O)[C@H](CCCNC(=N)N)NC(=O)[C@H](Cc2ccccc2)NC1=O [1C.10]
IC50 [1]: 84 nM | Kd [2]: 73 nM | Kd [3]: 79 nM | IC50 [4]: 283 nM | IC50 [5]: > 1000 nM | Kd [6]: 50 nM | Kd [7]: > 10000 nM | Kd [8]: 101 nM | Kd [9]: > 1000 nM

CC[C@H](C)[C@@H]1NC(=O)[C@@H](NC(=O)[C@H](CCSC)NC(C)=O)CSSC[C@@H](C(=O)NCC(=O)N[C@@H](CO)C(=O)NCC(=O)N[C@@H](CO)C(=O)N[C@@H](CC(=O)O)C(=O)N[C@@H](Cc2ccc(O)cc2)C(=O)N[C@@H](CCCCN)C(=O)N[C@@H](CC(=O)O)C(=O)N[C@@H](CC(=O)O)C(=O)N[C@@H](CC(=O)O)C(=O)N[C@@H](CC(=O)O)C(=O)N[C@@H](CCCCN)C(N)=O)NC(=O)[C@H](Cc2ccccc2)NC(=O)[C@H]([C@@H](C)CC)NC(=O)[C@H](Cc2ccccc2)NC(=O)[C@@H]2CCCN2C(=O)[C@H](CC(C)C)NC(=O)[C@H](Cc2ccccc2)NC(=O)[C@H](CC(C)C)NC(=O)[C@H](CC(=O)O)NC(=O)[C@H](Cc2ccccc2)NC1=O [3C.1]
IC50 [1]: > 1000 nM | Kd [2]: > 1000 nM | Kd [3]: > 10000 nM | IC50 [4]: > 1000 nM | IC50 [5]: 204 nM | Kd [6]: > 10000 nM | Kd [7]: 64 nM | Kd [8]: > 1000 nM | Kd [9]: 95 nM

CC[C@H](C)[C@@H]1NC(=O)[C@@H](NC(=O)[C@@H](N)CCSC)CSSC[C@@H](C(=O)NCC(=O)N[C@@H](CO)C(=O)NCC(=O)N[C@@H](CO)C(=O)N[C@@H](CC(=O)O)C(=O)N[C@@H](Cc2ccc(O)cc2)C(=O)N[C@@H](CCCCN)C(=O)N[C@@H](CC(=O)O)C(=O)N[C@@H](CC(=O)O)C(=O)N[C@@H](CC(=O)O)C(=O)N[C@@H](CC(=O)O)C(=O)N[C@@H](CCCCN)C(N)=O)NC(=O)[C@@H]2CCCN2C(=O)[C@H]([C@@H](C)CC)NC(=O)[C@H](Cc2ccccc2)NC(=O)[C@@H]2CCCN2C(=O)[C@H](CCSC)NC(=O)[C@H](Cc2c[nH]cn2)NC(=O)[C@H]([C@@H](C)CC)NC(=O)[C@H](CC(=O)O)NC(=O)[C@H](Cc2ccccc2)NC1=O [3C.2]
IC50 [1]: > 1000 nM | Kd [2]: > 1000 nM | Kd [3]: > 10000 nM | IC50 [4]: > 1000 nM | IC50 [5]: > 1000 nM | Kd [6]: > 10000 nM | Kd [7]: > 10000 nM | Kd [8]: > 1000 nM | Kd [9]: > 1000 nM | R3C KD (nM) [9, 10]: did not show any binding

CC[C@H](C)[C@@H]1NC(=O)[C@H](Cc2ccccc2)NC(=O)[C@@H]2CCCN2C(=O)[C@H](C(C)C)NC(=O)[C@H](Cc2ccccc2)NC(=O)[C@H](CO)NC(=O)[C@H](CC(=O)O)NC(=O)[C@H](Cc2ccccc2)NC(=O)[C@H](CC(C)C)NC(=O)[C@@H](NC(=O)[C@@H](N)CCSC)CSSC[C@@H](C(=O)NCC(=O)N[C@@H](CO)C(=O)NCC(=O)N[C@@H](CO)C(=O)N[C@@H](CC(=O)O)C(=O)N[C@@H](Cc2ccc(O)cc2)C(=O)N[C@@H](CCCCN)C(=O)N[C@@H](CC(=O)O)C(=O)N[C@@H](CC(=O)O)C(=O)N[C@@H](CC(=O)O)C(=O)N[C@@H](CC(=O)O)C(=O)N[C@@H](CCCCN)C(N)=O)NC(=O)[C@H](Cc2ccccc2)NC1=O [3C.3]
IC50 ([1]; read-out: R1C competitive IC50, purified peptides, Alphascreen vs biotinylated FGF21): > 1000 nM | Kd [2]: > 1000 nM | Kd [3]: > 10000 nM | IC50 ([4]; read-out: R4 competitive IC50, purified peptides, Alphascreen vs biotinylated FGF21): > 1000 nM | IC50 ([5]; read-out: R3C competitive IC50, purified peptides, Alphascreen vs biotinylated FGF21): 95 nM | Kd ([6]; read-out: KD (1C)): > 10000 nM | Kd ([7]; read-out: KD(3C)): 29 nM | Kd ([8]; read-out: R1C KD, purified NNK library peptides, multi-concentration BLI): > 1000 nM | Kd ([9]; read-out: R3C KD, purified NNK library peptides, multi-concentration BLI): 21 nM

CSCC[C@H](NC(C)=O)C(=O)N[C@H]1CSSC[C@@H](C(=O)NCC(=O)N[C@@H](CO)C(=O)NCC(=O)N[C@@H](CO)C(=O)N[C@@H](CC(=O)O)C(=O)N[C@@H](Cc2ccc(O)cc2)C(=O)N[C@@H](CCCCN)C(=O)N[C@@H](CC(=O)O)C(=O)N[C@@H](CC(=O)O)C(=O)N[C@@H](CC(=O)O)C(=O)N[C@@H](CC(=O)O)C(=O)N[C@@H](CCCCN)C(N)=O)NC(=O)[C@H](CO)NC(=O)[C@H](Cc2c[nH]cn2)NC(=O)[C@H](Cc2c[nH]c3ccccc23)NC(=O)[C@H](Cc2c[nH]cn2)NC(=O)[C@H](CCCNC(=N)N)NC(=O)[C@H]([C@@H](C)O)NC(=O)[C@H](Cc2ccc(O)cc2)NC(=O)[C@H](CC(C)C)NC(=O)[C@H](CC(N)=O)NC(=O)[C@H](Cc2c[nH]c3ccccc23)NC(=O)[C@H](CCC(N)=O)NC(=O)[C@H](CCC(N)=O)NC1=O [3C.4]
IC50 [1]: > 1000 nM | Kd [2]: > 1000 nM | Kd [3]: > 10000 nM | IC50 [4]: > 1000 nM | IC50 [5]: 71 nM | R3C competitive IC50 (nM) ([5]; purified peptides, Alphascreen vs biotinylated FGF21): efficiently competes with FGF21 | Kd [6]: > 10000 nM | Kd [7]: > 10000 nM | Kd [8]: > 1000 nM | Kd [9]: > 1000 nM | R3C KD (nM) [9, 10]: could not detect any binding

CC[C@H](C)[C@@H]1NC(=O)[C@H](C(C)C)NC(=O)[C@H](Cc2c[nH]cn2)NC(=O)[C@@H](NC(=O)[C@H](CCSC)NC(C)=O)CSSC[C@@H](C(=O)NCC(=O)N[C@@H](CO)C(=O)NCC(=O)N[C@@H](CO)C(=O)N[C@@H](CC(=O)O)C(=O)N[C@@H](Cc2ccc(O)cc2)C(=O)N[C@@H](CCCCN)C(=O)N[C@@H](CC(=O)O)C(=O)N[C@@H](CC(=O)O)C(=O)N[C@@H](CC(=O)O)C(=O)N[C@@H](CC(=O)O)C(=O)N[C@@H](CCCCN)C(N)=O)NC(=O)[C@H](Cc2ccc(O)cc2)NC(=O)[C@H](CCCNC(=N)N)NC(=O)[C@H](Cc2c[nH]c3ccccc23)NC(=O)[C@H](CO)NC(=O)[C@H](CCCNC(=N)N)NC(=O)[C@H](Cc2c[nH]c3ccccc23)NC(=O)[C@H](CC(C)C)NC1=O [4.2]
IC50 [1]: > 1000 nM | Kd [2]: 51 nM | Kd [3]: 93 nM | IC50 [4]: 682 nM | IC50 [5]: > 1000 nM | Kd [6]: > 10000 nM | Kd [7]: > 10000 nM | Kd [8]: > 1000 nM | Kd [9]: > 1000 nM
